The results in this text go back to paper PMC11003496 (Journal of Enzyme Inhibition and Medicinal Chemistry, 2023).

One test relates to HCT116 colorectal cancer. Briefly: MTT cell viability assay, HCT-116. Type of test: cell-based. Conditions: read-out: HCT-116 IC50, 48 h, mean of six values. A general note: Tetrazolium assays rely on reduction of a dye to a coloured formazan, in cell work by metabolically active cells.
Test [1] concerns A549 non-small cell lung cancer. Put plainly: MTT cell viability assay, A549. The note with it: read-out: A549 IC50; MTT, 48 h, mean of six values. Type of test: cell-based.

As a reminder, the IC50 is the concentration that gives 50% inhibition. `O=c1[nH]cc(F)c(=O)[nH]1` [Compound 5-F.U., reference compound]: the IC50 stood at 4.8 µM in the test with HCT116 colorectal cancer and 6 µM in test [1].
